In article PMC12591191, “SIRT6 Lysine‐Demyristoylates ATF2 to Ameliorate Vascular Injury via PRKCD/VE‐Cadherin Pathway Regulating Vascular Endothelial Barrier” (Advanced Science, 2025):

Legend:
[1] = tested on: HMEC-1; test: Transendothelial permeability (transwell, FITC-dextran); assay type: cell-based; conditions: 10 µg mL^−1, 12 h; FITC‐dextran 6µg mL^−1, 2 h or 6h, n = 3
Experimental: (§1) HMEC‐1, obtained from Shanghai Zhong Qiao Xin Zhou Biotechnology, was cultured in MCDB131 medium containing 10% foetal bovine serum (FBS) and 1% antibiotics (penicillin and streptomycin) in 5% CO2 incubator at 37 °C. HUVEC, obtained from Shanghai Zhong Qiao Xin Zhou Biotechnology, were cultured in ECM medium containing 5% FBS, 1% antibiotics (penicillin and streptomycin) and 1% endothelial cell growth supplement (ECGS) in 5% CO2 incubator at 37 °C. HEK 293T were obtained from ATCC, and cultured in Dulbecco's modified Eagle's medium (DM EM) containing 10% FBS and 1% antibiotics (penicillin and streptomycin) in 5% CO2 incubator at 37 °C. The SIRT6 KO 293T cells were constructed by Hanbio Biotechnology, the SIRT6 gRNA was 5′‐[…]‐3′. SIRT6 overexpression and knockdown recombinant lentivirus were constructed by Hanbio Biotechnology, the vector pGLV3‐harboring SIRT6 and SIRT6 shRNA (5′‐[…]‐3′) were used for lentivirus packaging. […]
HMEC‐1 transfected with relative plasmids were pretreated with ALK14(10 µg mL^−1) for 12 h and were grown on 0.4 µm‐pore transwell filters (Millipore, Bedford, MA) until confluent. […] Fluorescence of media in the lower chamber was detected at 485/530 nm by afluorescence microplate reader (FL × 800, BIO‐TEK Instruments).

[2] = tested on: HMEC-1; test: Intercellular gap formation, VE-Cadherin immunofluorescence; assay type: cell-based; conditions: 10 µg mL^−1, 12 h, n = 8–10; prevented by K296R
Experimental: (§2) HMEC‐1, obtained from Shanghai Zhong Qiao Xin Zhou Biotechnology, was cultured in MCDB131 medium containing 10% foetal bovine serum (FBS) and 1% antibiotics (penicillin and streptomycin) in 5% CO2 incubator at 37 °C. HUVEC, obtained from Shanghai Zhong Qiao Xin Zhou Biotechnology, were cultured in ECM medium containing 5% FBS, 1% antibiotics (penicillin and streptomycin) and 1% endothelial cell growth supplement (ECGS) in 5% CO2 incubator at 37 °C. HEK 293T were obtained from ATCC, and cultured in Dulbecco's modified Eagle's medium (DM EM) containing 10% FBS and 1% antibiotics (penicillin and streptomycin) in 5% CO2 incubator at 37 °C. The SIRT6 KO 293T cells were constructed by Hanbio Biotechnology, the SIRT6 gRNA was 5′‐[…]‐3′. SIRT6 overexpression and knockdown recombinant lentivirus were constructed by Hanbio Biotechnology, the vector pGLV3‐harboring SIRT6 and SIRT6 shRNA (5′‐[…]‐3′) were used for lentivirus packaging. The plasmid ATF2WT, ATF2K296R, GFP‐ATF2WT and GFP‐ATF2K296R were synthesized by Hanbio Biotechnology, and the plasmid pUC57‐SIRT6 and all primers were synthesized by Tsingke Biotechnology.

[3] = tested on: endogenous ATF2 in HUVECs; test: Nuclear localization of endogenous ATF2, HUVEC; assay type: cell-based; conditions: 10 µg mL^−1, 12 h, n = 3
Experimental: (§3) Protein samples were separated by SDS/PAGE and transferred to the PVDF membrane. The membrane was blocked with 5% BSA in TBST (25 mM Tris, pH 7.4, 150 mM NaCl, 0.1% Tween‐20), incubated with primary antibodies and secondary antibodies in TBST, and then treated with ECL Plus western blotting detection reagents (Bio‐rad). The chemiluminescence signal was analyzed by ChemiDoc imaging system (Bio‐rad).
as §1

[4] = tested on: HMEC-1; test: Endothelial-stromal differentiation (CD31 and αSMA western blot); assay type: cell-based; conditions: 10 ug/ml, 12h, n=3
Experimental: as §3, §1

[5] = tested on: VE‐Cadherin and PRKCD in HMEC-1; test: VE-Cadherin and PRKCD expression, western blot, HMEC-1; assay type: cell-based; conditions: 10 µg mL^−1, 12 h, n = 3
Experimental: as §3, §1

[6] = tested on: FLAG‐ATF2 in 293T cells; test: Nuclear localization of FLAG-ATF2, 293T; assay type: cell-based; conditions: 10 µg mL^−1, 12 h, n = 3
Experimental: as §3, §1

[7] = tested on: ATF2 in SIRT6 KD HMEC cells; test: Nuclear localization of ATF2, HMEC; assay type: cell-based; conditions: 10 µg mL^−1, 12 h, n = 3; not the K296R mutant
Experimental: as §3, §1

[8] = tested on: FLAG-tagged ATF2 in 293T cells; test: ATF2 myristoylation, IP and Click-iT; assay type: cell-based; conditions: 10 µg mL^−1, 12 h, n = 3
Experimental: as §2
Click chemistry was used for the detection of K296 myristoylation of exogenous ATF2. The click chemistry‐based labeling and detection technology was conducted according to the manufacturer's instructions (Click‐iT Protein Reaction Buffer Kit Invitrogen C10276).

[9] = tested on: ATF2 localization and PRKCD/VE‐cadherin axis in HUVECs; test: ALK14 versus myristic acid, ATF2 localization and PRKCD/VE-cadherin axis; assay type: cell-based; conditions: each 10 μg/ml, 12 hours
Experimental: as §3, §1

[10] = tested on: ATF2 in 293T; test: ATF2 protein level, western blot; assay type: cell-based; conditions: 0–20 µg mL^−1, 12 h, n = 3
Experimental: as §3, §1

[11] = tested on: 293T cells; test: Global myristoylation level, western blot; assay type: cell-based
Experimental: as §3, §1

[12] = tested on: SIRT6; conditions: SIRT6 activator, ref [57]; cited from earlier work
Description: Table 1 The activators of SIRT6 were represented with structure, EC50, category, company, indications, and reference. | column: EC50

Row | Structure (SMILES) | endothelial permeability, ATF2 K296R cells [1] | endothelial permeability, ATF2 WT cells [1] | intercellular gap formation (5 µm/10 µm), ATF2 WT [2] | ATF2 translocation [3] | effect on endothelial‐stromal differentiation [4] | PRKCD expression [5] | VE‐cadherin expression [5] | nuclear FLAG‐ATF2 accumulation [6] | nuclear accumulation of wild‐type ATF2 [7] | ATF2 myristoylation level [8] | impact on ATF2 localization and PRKCD/VE‐cadherin axis, myristic acid versus ALK14 [9] | ATF2 protein level [10] | global myristoylation level, dose dependence ([11]; 0–10 µg mL^−1, 12 hours) | global myristoylation level, ALK14-treated versus untreated ([11]; SIRT6 WT and KO cells, 10 μg/ml) | EC50 [12]
1 | C#CCCCCCCCCCCCC(=O)O [ALK14, Alkynyl myristic acid] | absent in K296R mutants | ALK14‐induced permeability in ATF2 WT cells | ALK14‐induced gap formation | translocation of endogenous ATF2 from nucleus to cytoplasm | Neither ALK14 nor ATF2 modification influenced endothelial‐stromal differentiation | PRKCD reduction | significantly reduced VE‐cadherin expression | significantly reduced nuclear FLAG‐ATF2 accumulation | reduced nuclear accumulation of wild‐type ATF2 | significant myristoylation enhancement | equivalent impacts | remained stable | dose‐dependent increases | significantly elevated global myristoylation levels | 
